Converted amounts (≈) assume the structure as drawn. The source made the active and inactive calls. The rule behind the calls is not given here.
Tests used:
Format in all cases: functional
[1] = Antioxidant activity assessed as superoxide radical anion scavenging activity at 0.5 mg/ml by hypoxanthine NBT method
[2] = Antioxidant activity assessed as superoxide radical anion scavenging activity at 0.2 mg/ml by hypoxanthine NBT method
[3] = Antioxidant activity assessed as superoxide radical anion scavenging activity by hypoxanthine NBT method

Compound | Activity [1] | Activity [2] | IC50 [3]
C[C@@H]1O[C@@H](Oc2c(-c3ccc(O)cc3)oc3cc(O)cc(O)c3c2=O)[C@H](O)[C@H](O)[C@H]1O | 29.9% |  | 
O=c1c(O)c(-c2ccc(O)c(O)c2)oc2cc(O[C@@H]3O[C@H](CO)[C@@H](O)[C@H](O)[C@H]3O)cc(O)c12 | 71.7% |  | 
C[C@@H]1O[C@@H](Oc2cc(O)c3c(=O)c(O[C@@H]4O[C@@H](C)[C@H](O)[C@@H](O)[C@H]4O)c(-c4ccc(O)cc4)oc3c2)[C@H](O)[C@H](O)[C@H]1O | 17.6% |  | 
C[C@@H]1O[C@@H](Oc2c(-c3ccc(O)c(O)c3)oc3cc(O)cc(O)c3c2=O)[C@H](O)[C@H](O)[C@H]1O | 88.9% |  | 
O=c1c(O[C@@H]2O[C@H](CO)[C@@H](O)[C@H](O)[C@H]2O)c(-c2ccc(O)cc2)oc2cc(O)cc(O)c12 | 51.7% |  | 
COc1cc2c(cc1[C@@H]1CC(=O)c3c(O)c(C)c4c(c3O1)C=CC(C)(C)O4)C=CC(C)(C)O2 | 95.8% | Active | 0.14 mg/mL (≈ 312 µM)

— ChEMBL document CHEMBL1140528, “A novel flavonoid from Lespedeza virgata (Thunb.) DC.: structural elucidation and antioxidative activity” (Bioorg Med Chem Lett, 2007)
